Results from paper PMC12864786 (Nature Communications, 2026).
Values belong to the molecule of their own block, whether it stands above or below them.

How the values were obtained:
CHU = target: T1, CHU (Cytophaga hutchinsonii, UniProt A0A6N4SMB5); experiment: HPLC product distribution, end point […] min; type: biochemical; conditions: 4 mM nucleotide, PolyP-60 65 mM phosphate units, 10 mM Mn2+, 50 mM MOPS-NaOH pH 7.0, 37 °C
T1 sequence (A0A6N4SMB5 1-305): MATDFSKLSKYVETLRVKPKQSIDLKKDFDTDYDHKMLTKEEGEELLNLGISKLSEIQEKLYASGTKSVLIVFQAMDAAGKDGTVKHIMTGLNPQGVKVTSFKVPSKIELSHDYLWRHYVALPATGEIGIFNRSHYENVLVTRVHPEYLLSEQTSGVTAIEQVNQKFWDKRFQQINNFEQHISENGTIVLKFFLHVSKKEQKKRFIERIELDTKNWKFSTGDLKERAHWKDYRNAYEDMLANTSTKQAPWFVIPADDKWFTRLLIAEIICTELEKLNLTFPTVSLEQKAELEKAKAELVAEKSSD

ARE = target: T2, ARE (Algibacter luteus, UniProt A0A1M6FUJ9); experiment: HPLC product distribution, end point […] min; type: biochemical; conditions: 4 mM nucleotide, PolyP 65 mM phosphate units, 10 mM Mn2+, 50 mM MOPS-NaOH pH 7.0, 37 °C
T2 sequence (A0A1M6FUJ9 1-283): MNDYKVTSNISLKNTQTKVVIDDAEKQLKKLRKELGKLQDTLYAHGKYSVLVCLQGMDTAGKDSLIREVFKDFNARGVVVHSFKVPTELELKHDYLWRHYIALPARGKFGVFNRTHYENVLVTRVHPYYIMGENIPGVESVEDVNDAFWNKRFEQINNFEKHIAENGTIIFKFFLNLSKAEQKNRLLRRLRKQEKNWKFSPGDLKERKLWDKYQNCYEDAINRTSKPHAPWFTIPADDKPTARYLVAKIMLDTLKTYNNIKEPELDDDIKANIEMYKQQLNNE

[1] = target: MBP-tagged Class III PPK2 enzyme from Pedobacter sp. (PED), full-length (Pedobacter sp.); experiment: AUC
AUC = target: the molecule itself; experiment: AUC

Molecule: Nc1nc2c(ncn2[C@@H]2O[C@H](COP(=O)(O)O)[C@@H](O)[C@H]2O)c(=O)[nH]1 [GMP]
- product distribution (CHU): CHU produces significant amounts of GPn (guanine nucleotides with four or more phosphate groups)
- Percent conversion to NTP (ARE): PED and ARE exhibit weak activity against CMP, GDP, and GMP

- stoichiometry N [1]: 2
Molecule: MBP-tagged Class III PPK2 enzyme from Pedobacter sp. (PED), full-length

Molecule: Nc1ncnc2c1ncn2[C@@H]1O[C@H](COP(=O)(O)O)[C@@H](O)[C@H]1O [AMP]
- product distribution (CHU): Product distribution of MAN and CHU under the same conditions

B1: MBP-tagged Class III PPK2 enzyme from Cytophaga hutchinsonii (CHU), full-length (enzyme, UniProt A0A6N4SMB5 1-305, looked up)
chain: MATDFSKLSKYVETLRVKPKQSIDLKKDFDTDYDHKMLTKEEGEELLNLGISKLSEIQEKLYASGTKSVLIVFQAMDAAGKDGTVKHIMTGLNPQGVKVTSFKVPSKIELSHDYLWRHYVALPATGEIGIFNRSHYENVLVTRVHPEYLLSEQTSGVTAIEQVNQKFWDKRFQQINNFEQHISENGTIVLKFFLHVSKKEQKKRFIERIELDTKNWKFSTGDLKERAHWKDYRNAYEDMLANTSTKQAPWFVIPADDKWFTRLLIAEIICTELEKLNLTFPTVSLEQKAELEKAKAELVAEKSSD
- stoichiometry N (AUC): 2
